From patent US8703805B2 (Exelixis Patent Company LLC, priority 2005, dated 2014)

Each molecule was assayed on LXRα and/or LXRβ (assay: LXR/LXRE co-transfection assay (luciferase reporter, CV-1 cells)). Details: IC50 or EC50 for LXR (LXRα and/or LXRβ, not distinguished), tested as described in Example 109, CV-1 cells.
Type: cell-based, human
Excerpt: To measure the ability of compounds to activate or inhibit the transcriptional activity of LXR in a cell based assay, the co-transfection assay was used. It has been shown that LXR functions as a heterodimer with RXR. For the co-transfection assay; expression plasmids for LXR and RXR are introduced via transient transfection into mammalian cells along with a luciferase reporter plasmid that contains one copy of a DNA sequence that is bound by LXR-RXR heterodimers (LXRE; Willy, P. ad. 1995). Treatment of transfected cells with an LXR agonist increases the transcriptional activity of LXR, which is measured by an increase in luciferase activity.
CV-1 African Green Monkey Kidney Cells Co-transfection expression plasmids, comprising full-length LXRα (pCMX-h LXRα, LXRβ (pCMX-hLXRβ), or RXRα (pCMX-RXR), reporter plasmid (LXREx1-Tk-Luciferase), and control (pCMX-Galactosidase expression vector) (Willey et al. Genes & Development 91033-1045 (1995)). Transfection reagent such as FuGENE6 (Roche). 1× Cell lysis buffer (1% Triton X 100 (IT Baker X200-07), 10% Glycerol (JT Baker M778-07), 5 mM Ditriotreitol (Quantum Bioprobe DTT03; add fresh before lysing), 1 mM EGTA (Ethylene Glycol-bis(B-Amino ethyl ether)-N,N,N′,N′-Tetracetic Acid) (Sigma E-4378), 25 mM Tricine (ICN 807420) pH 7.8) 1× Luciferase assay buffer (pH at 7.8) (0.73 mM ATP, 22.3 mM Tricine, 0.11 mM EDTA, 33.3 mM DTT) 1× Luciferrin/CoA (11 mM Luciferin, 3.05 mM Coenzyme A, 10 mM HEPES) Preparation of Screening Reagents
CV-1 cells were prepared 24 hours prior to the experiment by plating them into T-175 flasks or 500 cm^2 dishes in order to achieve 70-80% confluency on the day of the transfection. The number of cells to be transfected was determined by the number of plates to be screened. each 384 well plate requires 1.92×10^6 cells or 5000 cells per well. DNA Transfection Reagent was prepared by mixing the required plasmid DNAs with a cationic lipid transfection reagent FuGENE6 (Roche) by following the instructions provided with the reagents. Optimal DNA amounts were determined empirically per cell line and size of vessel to be transfected. 10-12 mL of media was added to the DNA Transfection Reagent and this mixture was added to the cells after aspirating media from the T175 cm^2 flask. Cells were then incubated at least 5 hours at 37° C. to prepare screening cells.
Luciferase assay reagent was prepared by combining before use (per 10 mL): […], 0.54 mL of 1× Luciferrin/CoA; 0.54 mL of 0.2 M Magnesium sulfate
Assay plates were prepared by dispensing 5 μL of compound per well of a 384 well plate to achieve final compound concentration of 10 μM and no more than 1% DMSO. Media was removed from the screening cells, the cells trypsinized, harvested cells by centrifugation, counted, and plated at a density of approximately 5000 cells per well in the 384 well assay plate prepared above in a volume of about 45 μL. Assay plates containing both compounds and screening cells (50 μL in total volume) were incubated for 20 hours at 37° C.
After incubation with compounds, media was removed from the cells and lysis buffer (30 μL/well) added. After 30 minutes at ambient temperature, luciferase assay buffer (30 μL/well) was added and the assay plates read on a luminometer (PE Biosystems Northstar reader with on-board injectors, or equivalent). Plates were read immediately after addition of luciferase assay buffer.
The LXR/LXRE co-transfection assay can be used to establish the EC50/IC50 values for potency and percent activity or inhibition for efficacy. Efficacy defines the activity of a compound relative to a high control ((N-(3-((4-fluorophenyl)-(naphthalene-2-sulfonyl)amino)propyl)-2,2-dimethylpropionamide)) or a low control (DMSO/vehicle). The dose response curves are generated from an 8 point curve with concentrations differing by ½ LOG units. each point represents the average of 4 wells of data from a 384 well plate. […]

SMILES | EC50 [µM]
CS(=O)(=O)c1cccc(-c2ccc(-c3cc(C(=O)NCC(F)(F)F)nn3-c3cccnc3C(F)(F)F)c(Cl)c2)c1 [Example 1401, 5-(3-chloro-3′-(methylsulfonyl)biphenyl-4-yl)-N-(2,2,2-trifluoroethyl)-1-(2-(trifluoromethyl)pyridin-3-yl)-1H-pyrazole-3-carboxamide] | < 1
CC(C)(O)c1cc(-c2ccc(-c3cccc(S(C)(=O)=O)c3)s2)n(-c2ccccc2C(F)(F)F)n1 [Example 1158, 2-(5-{5-[3-(methylsulfonyl)phenyl]-2-thienyl}-1-[2-(trifluoromethyl)phenyl]-1H-pyrazol-3-yl)propan-2-ol] | < 1
CC(C)CNC(=O)c1cc(-c2ccc(-c3cccc(S(C)(=O)=O)c3)cc2Cl)n(-c2cccnc2C(F)(F)F)n1 [Example 1388, 5-(3-chloro-3′-(methylsulfonyl)biphenyl-4-yl)-N-isobutyl-1-(2-(trifluoromethyl)pyridin-3-yl)-1H-pyrazole-3-carboxamide] | < 1
CC(C)(O)c1nn(-c2ccccc2Cl)c(-c2ccc(-c3cccc(S(C)(=O)=O)c3)s2)c1Br [Example 1278, 2-[4-bromo-1-(2-chlorophenyl)-5-{5-[3-(methylsulfonyl)phenyl]-2-thienyl}-1H-pyrazol-3-yl]propan-2-ol] | < 1
CC(C)(O)c1nn(-c2c(Cl)cccc2Cl)c(-c2ccc(-c3cccc(S(C)(=O)=O)c3)cc2)c1Cl [Example 138, 2-(4-chloro-1-(2,6-dichlorophenyl)-5-(3′-(methylsulfonyl)biphenyl-4-yl)-1H-pyrazol-3-yl)propan-2-ol] | < 1
CC(C)(O)c1nn(-c2ccccc2Cl)c(-c2ccc(-c3cccc(S(C)(=O)=O)c3)nc2)c1Cl [Example 132, 2-(4-chloro-1-(2-chlorophenyl)-5-(6-(3-(methylsulfonyl)phenyl)pyridin-3-yl)-1H-pyrazol-3-yl)propan-2-ol] | 1 to 10
Cc1cc(-c2cccc(S(C)(=O)=O)c2)ccc1-c1c(Cl)c(C(C)(C)O)nn1-c1cccnc1C(F)(F)F [Example 1391, 2-(4-chloro-5-(3-methyl-3′-(methylsulfonyl)biphenyl-4-yl)-1-(2-(trifluoromethyl)pyridin-3-yl)-1H-pyrazol-3-yl)propan-2-ol] | < 1
CC(C)(C(=O)O)c1cccc(-c2ccc(-c3cc(C(F)(F)F)nn3Cc3ccc(Cl)s3)s2)c1 [Example 1166, 2-[3-(5-{1-[(5-chloro-2-thienyl)methyl]-3-(trifluoromethyl)-1H-pyrazol-5-yl}-2-thienyl)phenyl]-2-methylpropanoic acid] | < 1
Cc1cc(-c2cccc(S(C)(=O)=O)c2)ccc1-n1nc(C(C)(C)O)cc1-c1c(F)cccc1Cl [Example 115, 2-(5-(2-chloro-6-fluorophenyl)-1-(3-methyl-3′-(methylsulfonyl)biphenyl-4-yl)-1H-pyrazol-3-yl)propan-2-ol] | < 1
CC(C)(O)c1cc(-c2sc(-c3cccc(S(C)(=O)=O)c3)cc2Br)n(-c2cccc(F)c2C(F)(F)F)n1 [Example 49, 2-(5-(3-bromo-5-(3-(methylsulfonyl)phenyl)thiophen-2-yl)-1-(3-fluoro-2-(trifluoromethyl)phenyl)-1H-pyrazol-3-yl)propan-2-ol] | < 1
CC(C)(O)c1cc(-c2ccc(-c3cccc(S(C)(=O)=O)c3)cn2)n(-c2ccccc2Cl)n1 [Example 119, 2-(1-(2-chlorophenyl)-5-(5-(3-(methylsulfonyl)phenyl)pyridin-2-yl)-1H-pyrazol-3-yl)propan-2-ol] | 1 to 10
CC(=O)c1ccc(-c2ccc(-c3cc(C(C)(C)O)nn3-c3ccccc3Cl)cc2)s1 [Example 1290, 1-(5-{4-[1-(2-chlorophenyl)-3-(1-hydroxy-1-methylethyl)-1H-pyrazole-5-yl]phenyl}-2-thienyl)ethanone] | 1 to 10
CS(=O)(=O)c1cc(-c2ccc(-c3cc(C(F)(F)F)nn3-c3cc(Cl)ccc3Cl)s2)ccc1OCCO [Example 1255, 2-{[4-{5-[1-(2,5-dichlorophenyl)-3-(trifluoromethyl)-1H-pyrazol-5-yl]-2-thienyl}-2-(methylsulfonyl)phenyl]oxy}ethanol] | 1 to 10
FC(F)(F)c1cc(-c2cccc(OCCN3CCOCC3)c2)n(-c2ccccc2Cl)n1 [Example 67, 4-(2-(3-(1-(2-chlorophenyl)-3-(trifluoromethyl)-1H-pyrazol-5-yl)phenoxy)-ethyl)morpholine] | 1 to 10
CC(C)(O)c1cc(-c2ccc(-c3cccc(S(C)(=O)=O)c3)s2)n(-c2ccccc2Br)n1 [Example 1320, 2-[1-(2-bromophenyl)-5-{5-[3-(methylsulfonyl)phenyl]-2-thienyl}-1H-pyrazol-3-yl]propan-2-ol] | < 1
CC(=O)c1cc(-c2ccc(-c3cccc(S(C)(=O)=O)c3)s2)n(-c2ccccc2Cl)n1 [Example 1150, 1-[1-(2-chlorophenyl)-5-{5-[3-(methylsulfonyl)phenyl]-2-thienyl}-1H-pyrazol-3-yl]ethanone] | < 1
CC(C)(C#N)c1cc(-c2ccc(-c3cccc(S(C)(=O)=O)c3)s2)n(-c2ccccc2Cl)n1 [Example 1134, 2-[1-(2-chlorophenyl)-5-{5-[3-(methylsulfonyl)phenyl]-2-thienyl}-1H-pyrazol-3-yl]-2-methylpropanenitrile] | < 1
CCN(CC)C(=O)COc1cccc(-c2ccc(-c3cc(C(C)(C)O)nn3-c3ccccc3Cl)cc2)c1 [Example 1298, 2-({4′-[1-(2-chlorophenyl)-3-(1-hydroxy-1-methylethyl)-1H-pyrazol-5-yl]biphenyl-3-yl}oxy)-N,N-diethylacetamide] | 1 to 10
CN1CCN(CCn2nc(C(F)(F)F)cc2-c2ccc(-c3cccc(S(C)(=O)=O)c3)cc2)CC1 [Example 1223, 1-methyl-4-(2-{5-[3′-(methylsulfonyl)biphenyl-4-yl]-3-(trifluoromethyl)-1H-pyrazol-1-yl}ethyl)piperazine] | 1 to 10
CS(=O)(=O)c1cccc(-c2ccc(-c3cc(C(O)C(F)(F)F)nn3-c3ccccc3Cl)s2)c1 (stereo not drawn) [Example 1209, 1-[1-(2-chlorophenyl)-5-{5-[3-(methylsulfonyl)phenyl]-2-thienyl}-1H-pyrazol-3-yl]-2,2,2-trifluoroethanol] | < 1
Cc1ccc(C)c(-n2nc(C(C)(C)O)cc2-c2ccc(-c3cccc(S(C)(=O)=O)c3)s2)c1 [Example 1314, 2-[1-(2,5-dimethylphenyl)-5-{5-[3-(methylsulfonyl)phenyl]-2-thienyl}-1H-pyrazol-3-yl]propan-2-ol] | < 1
CC(C)NC(=O)Oc1cccc(-c2ccc(-c3cc(C(C)(C)O)nn3-c3ccccc3Cl)cc2)c1 [Example 1296, 4′-[1-(2-chlorophenyl)-3-(1-hydroxy-1-methylethyl)-1H-pyrazol-5-yl]biphenyl-3-yl (1-methylethyl)carbamate] | 1 to 10
COC(=O)c1cc(-c2ccc(-c3cccc(S(C)(=O)=O)c3)s2)n(-c2ccccc2C(F)(F)F)n1 [Example 1156, methyl 5-{5-[3-(methylsulfonyl)phenyl]-2-thienyl}-1-[2-(trifluoromethyl)phenyl]-1H-pyrazole-3-carboxylate] | 1 to 10
CC(C)(O)c1cc(-c2cc(-c3cccc(S(C)(=O)=O)c3)cs2)n(-c2ccccc2Cl)n1 [Example 1250, 2-[1-(2-chlorophenyl)-5-{4-[3-(methylsulfonyl)phenyl]-2-thienyl}-1H-pyrazol-3-yl]propan-2-ol] | 1 to 10
